From patent US20250179045A1, “LPAR1 ANTAGONISTS AND USES THEREOF” (Contineum Therapeutics, Inc., priority 2021, published 2025)
pIC50: −log10 of the molar value.

Target: human LPA1 (Homo sapiens, UniProt Q92633)
Assay: In vitro functional assay of lysophosphatidic acid receptor 1 activity (calcium flux)
Type: cell-based
Conditions: B103 cells stably expressing human LPA1; Fluo-4 NW calcium flux after lysophosphatidic acid (18:1) at EC80; compounds 100 pM to 10 μM; read-out: LPA1 IC50
Procedure: In vitro functional assay of lysophosphatidic acid receptor 1 activity
Primary compound plates were prepared in 100% DMSO (Sigma-Aldrich), secondary compound plates were prepared at 10× concentration in DiVEM (Invitrogen), and tertiary compound plates were prepared at 3x concentration in assay buffer containing HBSS (no Ca^+2/Mg^+2, Invitrogen) and 0.1% BSA (Sigma-Aldrich). Fluo-4 NW calcium assay dye (Invitrogen) was prepared as per manufacturer's recommendations in assay buffer. B103 cells stably expressing human LPA1(J. Chun lab, UCSD) were grown to confluency in DMEM media (Invitrogen) containing 10% FBS (ATCC), […] (Sigma-Aldrich) and […] Geneticin (Sigma-Aldrich), and detached with Accutase (Sigma-Aldrich) prior to assay. The freshly detached cells were resuspended in growth media and plated in black, clear-bottom 96-well plates (Costar) containing compound (i.e., secondary compound plate) at a density of 5×10^4 cells/well. Once plated, cells were left at room temperature for 30 minutes and then transferred to a 37° C., […] incubator for 24 hours. After 24 hours, the growth media was then removed and freshly prepared Fluo-4 NW calcium assay dye was added to cells. Compounds (i.e. tertiary compound plates) were then added back to the dye/cells, returned to the incubator for 30 minutes, and then kept at room temperature for an additional 30 minutes. Finally, lysophosphatidic acid (18:1) at the EC80 concentration was added and calcium flux measured using FlexStation 3 (Molecular Devices). Sigmoidal dose-response curves were generated by measuring […] over 45 sec and calculating the area under the curve. Dose response curves and IC50 values were generated using Prism (GraphPad). Compounds were tested at a final concentration range of 100 pM to 10 μM in 0.10% DMSO.

human LPA1, sequence (Q92633 whole entry): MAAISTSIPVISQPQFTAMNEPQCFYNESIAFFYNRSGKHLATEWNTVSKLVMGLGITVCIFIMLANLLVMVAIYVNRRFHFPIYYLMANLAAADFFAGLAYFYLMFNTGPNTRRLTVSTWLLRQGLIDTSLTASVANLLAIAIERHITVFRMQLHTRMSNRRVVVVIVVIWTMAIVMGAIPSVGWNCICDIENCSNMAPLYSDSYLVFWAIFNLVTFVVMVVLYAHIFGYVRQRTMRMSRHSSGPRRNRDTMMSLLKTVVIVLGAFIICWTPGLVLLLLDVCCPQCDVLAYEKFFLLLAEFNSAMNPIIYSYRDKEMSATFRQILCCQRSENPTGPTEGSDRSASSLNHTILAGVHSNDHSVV

pIC50	Compound
7.00 to 8.00	Cc1ccc(NC(=O)C2(c3ccccc3C(C)C)CC(Cc3nnn[nH]3)C2)c(OC(F)F)n1 (mixture of isomers) [Example 112, 3-((1H-tetrazol-5-yl)methyl)-N-(2-(difluoromethoxy)-6-methylpyridin-3-yl)-1-(2-isopropylphenyl)cyclobutane-1-carboxamide]
6.00 to 7.00	CC(C)c1ccccc1C1(C(=O)Nc2cnc(C(F)F)cc2OC(F)F)CC(=O)N(C)C1 (stereo not drawn) [Example 4, N-(4-(difluoromethoxy)-6-(difluoromethyl)pyridin-3-yl)-3-(2-isopropylphenyl)-1-methyl-5-oxopyrrolidine-3-carboxamide]
7.00 to 8.00	CC(C)c1ccccc1C1(C(=O)Nc2ncc(Cl)cc2OC(F)F)CNC(=O)C1 (stereo not drawn) [Example 10, N-(5-chloro-3-(difluoromethoxy)pyridin-2-yl)-3-(2-isopropylphenyl)-5-oxopyrrolidine-3-carboxamide]
6.00 to 7.00	Cc1ccc(NC(=O)C2(c3ccccc3C(C)C)CC(N(C)C)C2)c(OC(F)F)n1 (stereo not drawn) [Example 39, N-(2-(difluoromethoxy)-6-methylpyridin-3-yl)-3-(dimethylamino)-1-(2-isopropylphenyl)cyclobutane-1-carboxamide]
7.00 to 8.00	COC[C@H](C)Oc1cc(Cl)ncc1NC(=O)C1(c2ccccc2C(C)C)COC1 [Example 34, (S)-N-(6-chloro-4-((1-methoxypropan-2-yl)oxy)pyridin-3-yl)-3-(2-isopropylphenyl)oxetane-3-carboxamide]
7.00 to 8.00	Cc1ccc(NC(=O)C2(c3ccccc3C(C)C)CC(O)(c3ccc(C#N)cn3)C2)c(OC(F)F)n1 (stereo not drawn) [Example 50, 3-(5-cyanopyridin-2-yl)-N-(2-(difluoromethoxy)-6-methylpyridin-3-yl)-3-hydroxy-1-(2-isopropylphenyl)cyclobutane-1-carboxamide]
7.00 to 8.00	CNS(=O)(=O)C1CC(C(=O)Nc2ccc(C)nc2OC(F)F)(c2ccccc2C(C)C)C1 (stereo not drawn) [Example 70, N-(2-(difluoromethoxy)-6-methylpyridin-3-yl)-1-(2-isopropylphenyl)-3-(N-methylsulfamoyl)cyclobutane-1-carboxamide]
7.00 to 8.00	COc1ccc(NC(=O)[C@]2(c3ccccc3C(C)C)C[C@H](CC(N)=O)C2)c(OC(F)F)n1 [Example 117, cis-3-(2-amino-2-oxoethyl)-N-(2-(difluoromethoxy)-6-methoxypyridin-3-yl)-1-(2-isopropylphenyl)cyclobutane-1-carboxamide]
6.00 to 7.00	Cc1ccc(NC(=O)C2(c3ncccc3C(C)C)COC2)c(OC(F)F)n1 [Example 37, N-(2-(difluoromethoxy)-6-methylpyridin-3-yl)-3-(3-isopropylpyridin-2-yl)oxetane-3-carboxamide]
7.00 to 8.00	Cc1ccc(NC(=O)C2(c3ncccc3C(C)C)CC(CC(=O)O)C2)c(OC(F)F)n1 (stereo not drawn) [Example 48, 2-(3-((2-(difluoromethoxy)-6-methylpyridin-3-y1)carbamoyl)-3-(3-isopropylpyridin-2-yl)cyclobutyl)acetic acid]
6.00 to 7.00	COc1ccc(NC(=O)C2(c3ccccc3C(C)C)CCC(NC(C)=O)CC2)c(OC(F)F)n1 (mixture of isomers) [Example 85, 4-acetamido-N-(2-(difluoromethoxy)-6-methoxypyridin-3-yl)-1-(2-isopropylphenyl)cyclohexane-1-carboxamide]
7.00 to 8.00	Cc1ccc(NC(=O)C2(c3ccccc3C(C)C)CC(CCO)C2)c(OC(F)F)n1 (mixture of isomers) [Example 49, N-(2-(difluoromethoxy)-6-methylpyridin-3-yl)-3-(2-hydroxyethyl)-1-(2-isopropylphenyl)cyclobutane-1-carboxamide]
> 8.00	COc1ccc(NC(=O)C2(c3ccccc3C(C)C)COC2)c(OC(F)F)n1 [Example 15, N-(2-(difluoromethoxy)-6-methoxypyridin-3-yl)-3-(2-isopropylphenyl)oxetane-3-carboxamide]
> 8.00	COc1ccc(NC(=O)C2(c3ccccc3C(C)C)CC(CC(=O)O)C2)c(OC(F)F)n1 (stereo not drawn) [Example 46, 2-(3-((2-(difluoromethoxy)-6-methoxypyridin-3-yl)carbamoyl)-3-(2-isopropylphenyl)cyclobutyl)acetic acid]
6.00 to 7.00	CC(C)c1ccccc1C1(C(=O)Nc2ccc(Cl)cn2)CC(O)(C(F)(F)C(=O)O)C1 (single isomer, unassigned) [Example 93-isomer B, 2-(3-((5-chloropyridin-2-y1)carbamoyl)-1-hydroxy-3-(2-isopropylphenyl)cyclobutyl)-2,2-difluoroacetic acid]
6.00 to 7.00	COc1ccc(NC(=O)C2(c3ccccc3C(C)C)CCC(S(C)(=O)=O)CC2)c(OC(F)F)n1 (stereo not drawn) [Example 100, N-(2-(difluoromethoxy)-6-methoxypyridin-3-yl)-1-(2-isopropylphenyl)-4-(methylsulfonyl)cyclohexane-1-carboxamide]
6.00 to 7.00	COc1ccc(NC(=O)C2(c3ccccc3C(C)C)COC2)c(OC2CC2)n1 [Example 29, N-(2-cyclopropoxy-6-methoxypyridin-3-yl)-3-(2-isopropylphenyl)oxetane-3-carboxamide]
6.00 to 7.00	Cc1ccc(NC(=O)C2(c3ccccc3C(C)C)CC(O)C2)c(OC(F)F)n1 (stereo not drawn) [Example 58, N-(2-(difluoromethoxy)-6-methylpyridin-3-yl)-3-hydroxy-1-(2-isopropylphenyl)cyclobutane-1-carboxamide]
6.00 to 7.00	COc1ccc(NC(=O)C2(c3ccccc3C(C)C)CCC3(CC2)NC(=O)NC3=O)c(OC(F)F)n1 (mixture of isomers) [Example 86, N-(2-(difluoromethoxy)-6-methoxypyridin-3-yl)-8-(2-isopropylphenyl)-2,4-dioxo-1,3-diazaspiro[4.5]decane-8-carboxamide]
7.00 to 8.00	COc1ccc(NC(=O)C2(c3ccccc3C(C)C)CC(CO)C2)c(OC)n1 (stereo not drawn) [Example 60, N-(2,6-dimethoxypyridin-3-yl)-3-(hydroxymethyl)-1-(2-isopropylphenyl)cyclobutane-1-carboxamide]
7.00 to 8.00	COc1ccc(NC(=O)C2(c3ccccc3C(C)C)CCC(C#N)CC2)c(OC(F)F)n1 (mixture of isomers) [Example 95, 4-cyano-N-(2-(difluoromethoxy)-6-methoxypyridin-3-yl)-1-(2-isopropylphenyl)cyclohexane-1-carboxamide]
6.00 to 7.00	CC(C)c1ccccc1C1(C(=O)Nc2cccnc2OC(F)F)CC(=O)N(C)C1 (stereo not drawn) [Example 2, N-(2-(difluoromethoxy)pyridin-3-yl)-3-(2-isopropylphenyl)-1-methyl-5-oxopyrrolidine-3-carboxamide]
6.00 to 7.00	Cc1ccc(NC(=O)C2(c3ccccc3C(C)C)CC(N3CC(O)C3)C2)c(OC(F)F)n1 (stereo not drawn) [Example 42, N-(2-(difluoromethoxy)-6-methylpyridin-3-yl)-3-(3-hydroxyazetidin-1-yl)-1-(2-isopropylphenyl)cyclobutane-1-carboxamide]
7.00 to 8.00	COc1ccc(NC(=O)[C@]2(c3ccccc3C(C)C)C[C@@H](CC(N)=O)C2)c(OC(F)F)n1 [Example 118, trans-3-(2-amino-2-oxoethyl)-N-(2-(difluoromethoxy)-6-methoxypyridin-3-yl)-1-(2-isopropylphenyl)cyclobutane-1-carboxamide]
7.00 to 8.00	Cc1ccc(NC(=O)C2(c3ccccc3C(C)C)CC(=O)N(C)C2)c(OC(F)F)c1 (stereo not drawn) [Example 110, N-(2-(difluoromethoxy)-4-methylphenyl)-3-(2-isopropylphenyl)-1-methyl-5-oxopyrrolidine-3-carboxamide]
6.00 to 7.00	Cc1ccc(NC(=O)C2(c3ccccc3C(C)C)CC(S(C)(=O)=O)C2)c(OC(F)F)n1 (stereo not drawn) [Example 71, N-(2-(difluoromethoxy)-6-methylpyridin-3-yl)-1-(2-isopropylphenyl)-3-(methylsulfonyl)cyclobutane-1-carboxamide]
7.00 to 8.00	CC(C)c1ccccc1C1(C(=O)Nc2ncc(Cl)cc2OC(F)F)COC1 [Example 22, N-(5-chloro-3-(difluoromethoxy)pyridin-2-yl)-3-(2-isopropylphenyl)oxetane-3-carboxamide]
7.00 to 8.00	CC(C)Oc1cc(Cl)ncc1NC(=O)C1(c2ccccc2C(C)C)COC1 [Example 33, N-(6-chloro-4-isopropoxypyridin-3-yl)-3-(2-isopropylphenyl)oxetane-3-carboxamide]
6.00 to 7.00	Cc1ccc(NC(=O)C2(c3ccccc3C(C)C)CC(F)C2)c(OC(F)F)n1 (stereo not drawn) [Example 62, N-(2-(difluoromethoxy)-6-methylpyridin-3-yl)-3-fluoro-1-(2-isopropylphenyl)cyclobutane-1-carboxamide]
6.00 to 7.00	COc1cc(CF)ccc1NC(=O)C1(c2ccccc2C(C)C)CNC(=O)C1 (stereo not drawn) [Example 115, N-(4-(fluoromethyl)-2-methoxyphenyl)-3-(2-isopropylphenyl)-5-oxopyrrolidine-3-carboxamide]
